We go through 3 compounds from US20070225284A1, “Inhibitors of soluble adenylate cyclase” (priority 2006, published 2007).

Broadly, the pIC50 is −log10 of the IC50, conventionally taken in molar units.

The target in data set [1] is soluble, sperm-specific adenylate cyclase (sAC) (Homo sapiens, UniProt Q96PN6). Put plainly: sAC-Assay (HTRF cAMP detection). The format is biochemical. The conditions noted are these: read-out: IC50 (inhibition of the soluble adenylate cyclase). The source says:
In a suitable buffer system, the soluble, sperm-specific adenylate cyclase catalyzes the reaction of adenosine triphosphate (ATP) to cyclic adenosine monophosphate (cAMP) and pyrophosphate. Free cAMP that is generated in this way is then used in a competitive detection process, in which the binding of a europium kryptate (Eu[K])-labeled anti-cAMP antibody (anti cAMP-Eu[K]-AK) to a cAMP-molecule-labeled, modified allophycocyanine-1 molecule (cAMP-XL665) is prevented. In the absence of exogenic cAMP, after excitation at 335 nm, it results in a fluorescence resonance energy transfer (FRET) between the anti cAMP-Eu[K]-AK (FRET-donor) and the cAMP-XL665 molecule (FRET-acceptor). This process is quantified at different times (time-resolved) based on the emission of FRET-acceptor XL665 (665 nm and 620 nm). A signal drop (measured as a wave ratio; calculation formula: [(E665 nm/E620 nm)×10000]) can be attributed to the presence of cAMP and thus to the activity of sAC.
First, 1.5 μl of the test substance (in 30% DMSO), only 30% DMSO in the solvent controls, is introduced per recess in a 384-hole test plate (polystyrene; 384, NV). […]
After an additional incubation of 90 minutes at room temperature, the HTRF result is measured either on the Packard Discovery or with the RubiStar HTRF measuring device (Delay: 50 μs; Integration time: 400 μs).
(In general: Time-resolved FRET reads energy transfer from a long-lived donor to a nearby acceptor.)

For data set [2] the following is noted: statement on known sAC inhibitors; cited from earlier work.

pIC50: −log10 of the molar value.

soluble, sperm-specific adenylate cyclase (sAC), sequence (Q96PN6 whole entry): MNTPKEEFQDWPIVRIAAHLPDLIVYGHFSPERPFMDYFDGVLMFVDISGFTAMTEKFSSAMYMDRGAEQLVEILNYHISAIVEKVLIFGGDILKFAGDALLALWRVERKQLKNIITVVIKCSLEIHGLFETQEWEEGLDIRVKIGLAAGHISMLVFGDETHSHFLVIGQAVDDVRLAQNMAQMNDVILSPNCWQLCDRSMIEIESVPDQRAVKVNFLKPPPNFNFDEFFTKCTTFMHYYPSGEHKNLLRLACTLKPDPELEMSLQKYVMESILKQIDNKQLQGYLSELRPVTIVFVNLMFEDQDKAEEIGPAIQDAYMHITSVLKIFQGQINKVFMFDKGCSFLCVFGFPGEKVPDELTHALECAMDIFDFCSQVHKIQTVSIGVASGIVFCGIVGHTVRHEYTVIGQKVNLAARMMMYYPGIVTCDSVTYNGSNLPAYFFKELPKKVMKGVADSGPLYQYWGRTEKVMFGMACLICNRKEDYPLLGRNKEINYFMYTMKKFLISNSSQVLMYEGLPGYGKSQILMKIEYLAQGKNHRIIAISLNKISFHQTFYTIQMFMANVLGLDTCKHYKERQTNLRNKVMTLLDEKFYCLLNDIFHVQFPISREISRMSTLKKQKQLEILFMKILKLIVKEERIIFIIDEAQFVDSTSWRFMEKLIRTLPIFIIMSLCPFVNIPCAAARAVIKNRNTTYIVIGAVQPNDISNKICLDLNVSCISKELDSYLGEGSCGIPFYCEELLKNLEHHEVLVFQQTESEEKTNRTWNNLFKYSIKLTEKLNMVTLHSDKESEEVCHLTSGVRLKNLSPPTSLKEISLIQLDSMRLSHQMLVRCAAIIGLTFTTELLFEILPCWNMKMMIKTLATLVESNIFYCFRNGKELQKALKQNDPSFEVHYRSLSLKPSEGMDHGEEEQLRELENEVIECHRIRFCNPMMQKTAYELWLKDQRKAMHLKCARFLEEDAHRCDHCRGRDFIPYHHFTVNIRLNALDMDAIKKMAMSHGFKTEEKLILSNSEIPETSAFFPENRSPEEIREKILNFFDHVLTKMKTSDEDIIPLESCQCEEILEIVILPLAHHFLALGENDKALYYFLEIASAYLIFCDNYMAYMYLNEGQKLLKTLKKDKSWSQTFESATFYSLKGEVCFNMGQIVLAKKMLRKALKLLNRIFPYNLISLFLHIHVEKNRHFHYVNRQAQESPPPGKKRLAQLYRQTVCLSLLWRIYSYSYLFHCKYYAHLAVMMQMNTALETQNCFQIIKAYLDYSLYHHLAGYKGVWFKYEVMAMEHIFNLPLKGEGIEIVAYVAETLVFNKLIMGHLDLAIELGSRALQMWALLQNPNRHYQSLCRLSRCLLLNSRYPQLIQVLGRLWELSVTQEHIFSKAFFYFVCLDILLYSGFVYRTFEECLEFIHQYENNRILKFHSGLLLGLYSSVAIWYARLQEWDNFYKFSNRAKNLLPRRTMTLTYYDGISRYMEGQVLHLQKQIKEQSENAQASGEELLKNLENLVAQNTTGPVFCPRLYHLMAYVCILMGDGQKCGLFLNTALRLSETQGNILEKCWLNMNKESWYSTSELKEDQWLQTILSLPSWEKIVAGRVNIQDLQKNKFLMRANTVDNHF

Consider `CN(c1ccc2[nH]c(C(=O)NCCN3CCOCC3)c(-c3ccccc3)c2c1)S(=O)(=O)c1ccc(C(C)(C)C)cc1`, for which the pIC50 in data set [1] was 5.59.

Take `Cc1cc2c(C(C)C)c(O)c(O)c(C=O)c2c(O)c1-c1c(C)cc2c(C(C)C)c(O)c(O)c(C=O)c2c1O` [gossypol]: the toxicity entry in data set [2] is on record as “inherently toxic”.

For `CC(O)CNC(=O)c1[nH]c2ccc(N(C)S(=O)(=O)c3ccc(C(C)(C)C)cc3)cc2c1-c1ccccc1` (racemic) [Example 4, (±)-5-[(4-tert-Butyl-phenylsulfonyl)-methyl-amino]-3-phenyl-1H-indole-2-carboxylic acid-(2-hydroxy-propyl)-amide], the pIC50 in data set [1] was 5.89.
